Results taken from US7138361B2, “Herbicidal heterocycles” (E. I. du Pont de Nemours and Company, priority 2000, dated 2006).

How the values were obtained:
Assay type in all cases: in vivo
Sunflower [1] = assay: Test C preemergence; details: Rate 500 g/ha, visual evaluation after 12 to 14 days
[2] = system: cocklebur (Xanthium strumarium); assay: Test B postemergence
Method in brief: (§1)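 Greenhouse test: chemicals are formulated in a surfactant-containing non-phytotoxic solvent and applied either preemergence to planted seeds or postemergence to plants 2 to 18 cm tall. Response is rated visually versus controls after 13 to 15 days, 0 meaning no effect and 100 complete control.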

[3] = system: lambsquarters (Chenopodium album); assay: Test B postemergence; details: Rate 125 g/ha, scale 0 to 100, 0 no effect, 100 complete control
Method in brief: as §1

[4] = system: crabgrass (Digitaria sanguinalis); assay: Test B postemergence; details: Rate 125 g/ha, scale 0 to 100, 0 no effect, 100 complete control
Method in brief: as §1

wild oat (Avena fatua) = assay: Test B postemergence; details: Rate 125 g/ha, scale 0 to 100, 0 no effect, 100 complete control
Method in brief: as §1

[5] = system: cocklebur (Xanthium strumarium); assay: Test C preemergence
Method in brief: (§2)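 Formulation: non-phytotoxic solvent mix incl. surfactant. Pre: applied right after planting. Post: 1–4-leaf seedlings. Read: visual 0–100, day 12–14, greenhouse.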

[6] = system: woolly cupgrass (Eriochloa villosa); assay: Test C preemergence
Method in brief: as §2

[7] = system: velvetleaf (Abutilon theophrasti); assay: Test C preemergence
Method in brief: as §2

Sunflower [8] = assay: Test C preemergence; details: Rate 125 g/ha; scale 0 to 100, 0 no effect, 100 complete control
[9] = system: common ragweed (Ambrosia elatior); assay: Test C preemergence
Method in brief: as §2

corn (Zea mays) = assay: Test C preemergence
Method in brief: as §2

[10] = system: lambsquarters (Chenopodium album); assay: Test C preemergence
Method in brief: as §2

soybean (Glycine max) = assay: Test C preemergence
Method in brief: as §2

Nightshade = assay: Test C preemergence
[11] = system: Surinam grass (Brachiaria decumbens); assay: Test C preemergence
Method in brief: as §2

[12] = system: bermudagrass (Cynodon dactylon); assay: Test C preemergence
Method in brief: as §2

kochia (Kochia scoparia) = assay: Test C preemergence
Method in brief: as §2

[13] = system: pigweed (Amaranthus retroflexus); assay: Test C preemergence
Method in brief: as §2

[14] = system: giant foxtail (Setaria faberii); assay: Test C preemergence
Method in brief: as §2

[15] = system: johnsongrass (Sorghum halepense); assay: Test C preemergence
Method in brief: as §2

[16] = Rate 125 g/ha, scale 0 to 100, 0 no effect, 100 complete control
[17] = preemergence, Rate 62 g/ha, scale 0 to 100
[18] = preemergence, Rate 500 g/ha, visual evaluation after 12 to 14 days
[19] = preemergence, Rate 250 g/ha, scale 0 to 100, 0 no effect, 100 complete control

CCCC(C)c1ccn(C2CCN(c3ccc(Cl)c(OC)c3)C2=O)n1 (centres unmarked) [Compound 121]
30: Plant response rating, Crabgrass [4] | Plant response rating, Wild Oat (wild oat (Avena fatua)) | Plant response rating, Sunflower (Sunflower [8])
90: Plant response rating, Ragweed, Common [9, 16] | Plant response rating, Ragweed, Common [9, 19] | Plant response rating (0 to 100), Corn (corn (Zea mays); [18]) | Plant response rating, Soybean (soybean (Glycine max); [19]) | Plant response rating, Nightshade (Nightshade; [16]) | Plant response rating, Johnsongrass [15, 16]
80: Plant response rating, Lambsquarters [3] | Plant response rating, Cupgrass, Woolly [6, 17] | Plant response rating, Surinam grass [11, 16]
0: Plant response rating, Cocklebur [5, 17] | Plant response rating, Velvetleaf [7, 17] | Plant response rating, Ragweed, Common [9, 17] | Plant response rating, Corn (corn (Zea mays); [17]) | Plant response rating, Soybean (soybean (Glycine max); [17])
100: Plant response rating, Cocklebur ([2]; Rate 500 g/ha, scale 0 to 100, 0 is no effect, 100 is complete control, 13 to 15 days) | Plant response rating (0 to 100), Cocklebur [5, 18] | Plant response rating, Cupgrass, Woolly [6, 16] | Plant response rating (0 to 100), Cupgrass, Woolly [6, 18] | Plant response rating, Cupgrass, Woolly [6, 19] | Plant response rating (0 to 100), Velvetleaf [7, 18] | Plant response rating, Velvetleaf [7, 19] | Plant response rating (0 to 100), Ragweed, Common [9, 18] | Plant response rating, Lambsquarters [10, 16] | Plant response rating, Lambsquarters [10, 17] | Plant response rating (0 to 100), Lambsquarters [10, 18] | Plant response rating, Lambsquarters [10, 19] | Plant response rating (0 to 100), Soybean (soybean (Glycine max); [18]) | Plant response rating, Nightshade (Nightshade; Rate 250 g/ha, scale 0 to 100, 0 no effect, 100 complete control) | Plant response rating (0 to 100), Surinam grass [11, 18] | Plant response rating, Surinam grass [11, 19] | Plant response rating, Bermudagrass [12, 16] | Plant response rating, Bermudagrass [12, 17] | Plant response rating (0 to 100 where 0 is no effect and 100 is complete control), Bermudagrass [12, 18] | Plant response rating, Bermudagrass [12, 19] | Plant response rating, Kochia (kochia (Kochia scoparia); [16]) | Plant response rating, Kochia (kochia (Kochia scoparia); [17]) | Plant response rating (0 to 100), Kochia (kochia (Kochia scoparia); [18]) | Plant response rating, Kochia (kochia (Kochia scoparia); [19]) | Plant response rating (0 to 100), Pigweed [13, 18] | Plant response rating, Foxtail, Giant [14, 16] | Plant response rating (0 to 100), Foxtail, Giant [14, 18] | Plant response rating (0 to 100), Johnsongrass [15, 18] | Plant response rating, Johnsongrass [15, 19]
20: Plant response rating, Cocklebur [5, 16] | Plant response rating, Velvetleaf [7, 16] | Plant response rating, Corn (corn (Zea mays); [16]) | Plant response rating, Surinam grass [11, 17] | Plant response rating, Pigweed [13, 17] | Plant response rating, Foxtail, Giant [14, 17]
60: Plant response rating, Soybean (soybean (Glycine max); [16]) | Plant response rating, Pigweed [13, 19] | Plant response rating, Foxtail, Giant [14, 19] | Plant response rating, Johnsongrass [15, 17]
70: Plant response rating (0 to 100), Sunflower (Sunflower [1]) | Plant response rating, Cocklebur [2, 16] | Plant response rating, Corn (corn (Zea mays); [19])
50: Plant response rating, Cocklebur [5, 19] | Plant response rating, Pigweed [13, 16]
10: Plant response rating, Nightshade (Nightshade; Rate 62 g/ha, scale 0 to 100)
